“And” between values parts separate entries of the source, which are not always exact repeats. Equal entries are not always repeated. Toxic doses and inconclusive results are not listed. The calls were made as follows: active = survival T/C of 150% or more; inactive = T/C below 125% in these data.
System: CD2F1 mice, L1210 leukemia ip, survival T/C
Experiment: NCI In Vivo Anticancer Drug Screen. Data for tumor model L1210 Leukemia (intraperitoneal) in CD2F1 (CDF1) mice
Conditions: endpoint: mean survival time, higher = longer survival
Summary of the method: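 Mice carrying a transplanted tumor received test compound or vehicle alone. The value is the measurement in the treated group divided by that in the vehicle-treated control group.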

[1] = dose: 100.0 mg/kg/injection, schedule: Q04DX003 (ip), vehicle: saline
[2] = dose: 200.0 mg/kg/injection, schedule: Q04DX003 (ip), vehicle: saline
[3] = dose: 100.0 mg/kg/injection, schedule: Q04DX002 (ip), vehicle: saline with Tween-80
[4] = dose: 200.0 mg/kg/injection, schedule: Q04DX002 (ip), vehicle: saline with Tween-80
[5] = dose: 100.0 mg/kg/injection, schedule: Q01DX009 (ip), vehicle: saline with Tween-80
[6] = dose: 200.0 mg/kg/injection, schedule: Q01DX009 (ip), vehicle: saline with Tween-80
[7] = dose: 400.0 mg/kg/injection, schedule: Q01DX009 (ip), vehicle: saline with Tween-80
[8] = dose: 100.0 mg/kg/injection, schedule: Q01DX001 (ip), vehicle: saline with Tween-80
[9] = dose: 200.0 mg/kg/injection, schedule: Q01DX001 (ip), vehicle: saline with Tween-80
[10] = dose: 400.0 mg/kg/injection, schedule: Q01DX001 (ip), vehicle: saline with Tween-80
[11] = dose: 100.0 mg/kg/injection, schedule: Q04DX003 (ip), vehicle: saline with Tween-80
[12] = dose: 200.0 mg/kg/injection, schedule: Q04DX003 (ip), vehicle: saline with Tween-80
[13] = dose: 400.0 mg/kg/injection, schedule: Q04DX003 (ip), vehicle: saline with Tween-80
[14] = dose: 12.5 mg/kg/injection, schedule: Q04DX003 (ip), vehicle: saline with Tween-80
[15] = dose: 25.0 mg/kg/injection, schedule: Q04DX003 (ip), vehicle: saline with Tween-80
[16] = dose: 12.5 mg/kg/injection, schedule: Q01DX009 (ip), vehicle: saline
[17] = dose: 25.0 mg/kg/injection, schedule: Q01DX009 (ip), vehicle: saline
[18] = dose: 50.0 mg/kg/injection, schedule: Q01DX009 (ip), vehicle: saline with Tween-80

Measured: T/C

CN(C)C(=NC#N)N(C)C
inactive: dose: 100.0 mg/kg/injection, schedule: Q01DX009 (ip), vehicle: saline 102 % of control | [1] 100 % of control | dose: 200.0 mg/kg/injection, schedule: Q01DX009 (ip), vehicle: saline 96 % of control | [2] 95 % of control | dose: 400.0 mg/kg/injection, schedule: Q01DX009 (ip), vehicle: saline 96 % of control | dose: 400.0 mg/kg/injection, schedule: Q04DX003 (ip), vehicle: saline 97 % of control

O=C(OCc1ccccc1)c1ccccc1
inactive: dose: 100.0 mg/kg/injection, schedule: Q04DX002 (ip), vehicle: Klucel (hydroxypropylcellulose) (HPC) 90 % of control | dose: 200.0 mg/kg/injection, schedule: Q04DX002 (ip), vehicle: Klucel (hydroxypropylcellulose) (HPC) 100 % of control | dose: 400.0 mg/kg/injection, schedule: Q04DX002 (ip), vehicle: Klucel (hydroxypropylcellulose) (HPC) 90 % of control

CC(Cc1ccccc1)NNC(C)Cc1ccccc1 (stereo not drawn)
inactive: dose: 75.0 mg/kg/injection, schedule: Q01DX001 (ip), vehicle: saline 98 % of control | dose: 150.0 mg/kg/injection, schedule: Q01DX001 (ip), vehicle: saline 102 % of control | dose: 300.0 mg/kg/injection, schedule: Q01DX001 (ip), vehicle: saline 97 % of control

O/N=C1\CCCC\C1=N/O.O/N=C1\CCCC\C1=N/O.[Pt]
inactive: dose: 3.13 mg/kg/injection, schedule: Q04DX003 (ip), vehicle: dextrose 98 % of control | dose: 6.25 mg/kg/injection, schedule: Q04DX003 (ip), vehicle: dextrose 98 % of control | dose: 12.5 mg/kg/injection, schedule: Q04DX003 (ip), vehicle: dextrose 101 % of control | dose: 25.0 mg/kg/injection, schedule: Q04DX003 (ip), vehicle: dextrose 98 % of control | dose: 50.0 mg/kg/injection, schedule: Q04DX003 (ip), vehicle: dextrose 97 % of control and 101 % of control | dose: 100.0 mg/kg/injection, schedule: Q04DX003 (ip), vehicle: dextrose 93 % of control and 101 % of control | dose: 200.0 mg/kg/injection, schedule: Q04DX003 (ip), vehicle: dextrose 96 % of control and 101 % of control | dose: 400.0 mg/kg/injection, schedule: Q04DX003 (ip), vehicle: dextrose 101 % of control

O=S1c2ccccc2-c2ccccc21
inactive: [3] 92 % of control | [4] 100 % of control | dose: 400.0 mg/kg/injection, schedule: Q04DX002 (ip), vehicle: saline with Tween-80 103 % of control

CCOC(=O)C1C=CCCC1 (stereo not drawn)
inactive: [5] 97 % of control | [6] 103 % of control | [7] 95 % of control

NC(=O)CC[n+]1ccccc1
inactive: dose: 12.5 mg/kg/injection, schedule: Q04DX003 (ip), vehicle: saline 97 % of control | dose: 25.0 mg/kg/injection, schedule: Q04DX003 (ip), vehicle: saline 97 % of control | dose: 50.0 mg/kg/injection, schedule: Q04DX003 (ip), vehicle: saline 96 % of control

NC(=O)C1C(c2ccccc2)=C(c2ccccc2)c2ccccc21 (stereo not drawn)
inactive: [8] 87 % of control | [9] 87 % of control | [10] 87 % of control

NC(CS)=NCc1ccccc1
inactive: dose: 6.25 mg/kg/injection, schedule: Q04DX002 (ip), vehicle: saline 108 % of control | dose: 12.5 mg/kg/injection, schedule: Q04DX002 (ip), vehicle: saline 115 % of control | dose: 25.0 mg/kg/injection, schedule: Q04DX002 (ip), vehicle: saline 101 % of control

CC(c1ccc([N+](=O)[O-])cc1)C(O)c1ccccc1 (stereo not drawn)
inactive: [11] 111 % of control | [12] 103 % of control | [13] 102 % of control

OC(c1ccccc1)c1ccc2c(c1)CCC2 (stereo not drawn)
inactive: [11] 102 % of control | [12] 98 % of control | [13] 94 % of control

CCOP1(=O)OCC(C(C)(C)C)CO1 (stereo not drawn)
inactive: dose: 12.5 mg/kg/injection, schedule: Q04DX003 (ip), vehicle: Klucel (hydroxypropylcellulose) (HPC) 102 % of control | dose: 25.0 mg/kg/injection, schedule: Q04DX003 (ip), vehicle: Klucel (hydroxypropylcellulose) (HPC) 102 % of control

O=S(=O)(O)c1ccccc1N=Nc1c(S(=O)(=O)O)cc2cc(S(=O)(=O)O)c(N=Nc3ccccc3S(=O)(=O)O)c(O)c2c1O
inactive: [11] 97 % of control | [12] 100 % of control

COC(=O)c1ccccc1N1C(=O)C=CC1=O
inactive: [14] 98 % of control | [15] 89 % of control

CCOC(=O)Nc1ccc(F)cc1F
inactive: [5] 94 % of control | [6] 94 % of control | [7] 100 % of control

CN(C)CCCNC(CC#N)CCC#N (stereo not drawn)
inactive: [1] 96 % of control | [2] 95 % of control

Cc1ccc(S(=O)(=O)Nc2ccccc2-c2nc3cc(Cl)ccc3c(=O)o2)cc1
inactive: [11] 87 % of control | [12] 98 % of control | [13] 98 % of control

CC(C#N)C(N)=O (stereo not drawn)
inactive: [16] 98 % of control | [17] 101 % of control | dose: 50.0 mg/kg/injection, schedule: Q01DX009 (ip), vehicle: saline 102 % of control

Cc1cccc(C)c1NC(=O)c1ccccc1O
inactive: [5] 98 % of control | [11] 101 % of control | [6] 97 % of control | [12] 96 % of control | [7] 100 % of control | [13] 102 % of control

c1ccc(-c2cc3ccccc3c(-c3ccccc3)c2-c2ccccc2)cc1
inactive: dose: 150.0 mg/kg/injection, schedule: Q01DX001 (ip), vehicle: other 90 % of control | dose: 300.0 mg/kg/injection, schedule: Q01DX001 (ip), vehicle: other 88 % of control

C=CCc1cc(O)c(CC=C)cc1O
inactive: [3] 95 % of control | [4] 95 % of control

CN(C)N=Nc1c(F)cc(F)cc1F
inactive: dose: 25.0 mg/kg/injection, schedule: Q01DX009 (ip), vehicle: saline with Tween-80 98 % of control | [18] 102 % of control | [6] 90 % of control

NC(N)=NNc1ccccc1
inactive: dose: 6.25 mg/kg/injection, schedule: Q01DX009 (ip), vehicle: saline 100 % of control | [16] 100 % of control | [17] 96 % of control

O=C(O)CCc1cccnc1
inactive: [5] 95 % of control | [6] 104 % of control | [7] 111 % of control

COc1ccc2c(c1OC(C)=O)-c1cc(OC(C)=O)cc3c1C(C2)NCC3 (stereo not drawn)
inactive: dose: 3.13 mg/kg/injection, schedule: Q04DX003 (ip), vehicle: saline with Tween-80 96 % of control | dose: 6.25 mg/kg/injection, schedule: Q04DX003 (ip), vehicle: saline with Tween-80 94 % of control | [14] 94 % of control | [15] 94 % of control

Nc1cccc(CC(=O)Nc2cccc(S(=O)(=O)F)c2)c1
inactive: [8] 96 % of control | [9] 95 % of control | [10] 90 % of control

NC(=S)Nc1ccccc1[N+](=O)[O-]
inactive: dose: 50.0 mg/kg/injection, schedule: Q04DX003 (ip), vehicle: saline with Tween-80 103 % of control and 104 % of control | [8] 101 % of control | [3] 95 % of control | [11] 97 % of control and 101 % of control | [9] 102 % of control | [4] 93 % of control | [12] 97 % of control and 111 % of control

CCN(CC)c1cccc(O)c1
inactive: [18] 92 % of control | [5] 98 % of control

Reference: PubChem BioAssay AID256 (DTP/NCI, 2004)
